The record followed here is patent US5952511A, “Indolin-2-one derivatives” (Chugai Seiyaku Kabushiki Kaisha, priority 1993, dated 1999).

Experiment [1] concerns the target T1, gastrin receptors (guinea pig gastric glands) (Cavia porcellus, UniProt H0VZC5).
T1 construct: The gastric glands were isolated from the tissue with a pipette; from tissue; host or cells: isolated gastric glands from gastric mucosa of Hartley male guinea pigs
T1 sequence (H0VZC5 1-426): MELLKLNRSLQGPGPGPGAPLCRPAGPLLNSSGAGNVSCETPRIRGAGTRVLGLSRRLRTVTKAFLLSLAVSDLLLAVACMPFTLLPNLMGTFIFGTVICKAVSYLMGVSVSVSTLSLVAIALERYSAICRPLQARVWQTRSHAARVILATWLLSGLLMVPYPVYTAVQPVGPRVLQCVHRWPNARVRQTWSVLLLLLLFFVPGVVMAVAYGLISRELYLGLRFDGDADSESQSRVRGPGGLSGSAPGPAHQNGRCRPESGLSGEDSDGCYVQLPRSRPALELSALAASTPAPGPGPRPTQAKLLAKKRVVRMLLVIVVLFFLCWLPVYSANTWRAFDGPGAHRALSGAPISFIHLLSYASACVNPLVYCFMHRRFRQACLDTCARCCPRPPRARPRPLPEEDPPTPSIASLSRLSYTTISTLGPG
The experiment is described as follows: Gastrin Receptor Binding Test in Guinea Pig Gastric Glands (Test Example 1). On the set-up: species or system guinea pig (Hartley, male). As to conditions: inhibition of specific 125I-gastrin I human binding (22.5 pM), 25° C., 45 min. The protocol: Gastrin Receptor Binding Test in Guinea Pig Gastric Glands
Preparation of Gastric Glands:
Guinea pig gastric glands were prepared according to the method of Chang, et al., Biochem. Biophys. Res. Commun., 134, 895 (1986). The gastric mucosa of a Hartley male guinea pig was peeled off. After washing, the mucosa was minced with scissors in buffer A (Eagle's MEM containing 2 mM L-glutamine and 25 mM HEPES; pH 7.4). After washing, the minced tissue was incubated in buffer A containing 0.025% collagenase, 0.01% soy bean trypsin inhibitor, and 0.1% BSA at 37° C. for 60 minutes under 95% O2 and 5% CO2. The gastric glands were isolated from the tissue with a pipette, washed twice with buffer A, and filtered through a mesh. Then, the gastric glands were obtained by centrifugation.
Guinea pig gastric glands were resuspended in buffer B (Hank's solution containing 10 mM HEPES and 0.2% BSA; pH 7.4) (10 ml of buffer B per guinea pig).
To 200 μl of the suspension containing the resuspended isolated gastric glands were added 20 μl of ^125 I-gastrin I human (final concentration: 22.5 pM). Then, 10 μl of a test compound or a solvent (for total binding) or 10 μM Pentagastrin (for nonspecific binding), and buffer B was added there to make a total volume of 1 ml. The reaction mixture was incubated at 25° C. for 45 minutes and then centrifuged at 12000 g. The supernatant was removed by suction, and the radioactivity of the isolated gastric glands was measured with a gamma-counter.
The specific binding of gastrin to gastrin receptors was obtained from a difference between the total binding and the nonspecific binding. The IC50 of the test compound in inhibition of specific binding was calculated.

A further experiment relates to gastric acid secretion. The experiment is described as follows: Inhibitory Activity on Gastric Acid Secretion in Pylorus Ligated Rats (Test Example 2). The class given is in vivo, rat (Sprague-Dawley, male). The note with it: Rattus norvegicus, intraduodenal, i.d., 4 h. The protocol:
Inhibitory Activity on Gastric Acid Secretion in Pyrolus Ligated Rats
Sprague-Dawley male rats weighing about 200 g were deprived of food for 24 hours while allowed water ad libitum. The abdomen was opened under anesthesia with ethyl ether, the pyrolus ligated, and the abdomen closed. The rats were deprived of food and water for 4 hours until they were surcrified with ethyl ether. The stomach was removed, and gastric juice was collected and measured. The gastric juice was centrifuged at 3000 rpm, and the supernatant was titrated up to pH 7.0 with 0.1N NaOH solution to obtain the acidity of the gastric juice. The amount of the gastric acid output was calculated by multiplying the gastric juice volume by the acidity, and the percent inhibition of acid secretion was obtained according to the following equation. A test compound, suspended in a 3% gum arabic solution, was administered intraduodenally at a dose of 2 ml/kg immediately after the pyrolus ligation.
Inhibition (%)=[(Average amount of gastric acid output in control group--Average amount of gastric acid output in test group)/Average amount of gastric acid secreted […]]×100

Molecule `CCOC(CN1C(=O)C(CC(=O)Nc2ccc(C)cc2)(NC(=O)Nc2cccc(OC)c2)c2ccccc21)OCC` (single isomer, unassigned; (+)) [Example 188, (+)-1-(2,2-Diethoxyethyl)-3-(4-methylphenyl)aminocarbonylmethyl-3-(N'-(3-methoxyphenyl)ureido)indolin-2-one] came in with an IC50 in experiment [1] of 0.35 nM. Also, 3 mg/kg produced 76% inhibition in vivo in the experiment on gastric acid secretion (3 mg/kg).

`CCOC(CN1C(=O)C(CC(=O)Nc2ccc(Cl)cc2)(NC(=O)Nc2ccc(Cl)cc2)c2ccccc21)OCC` (racemic) [Example 168, (RS)-3-((4-Chlorophenyl)aminocarbonylmethyl)-3-(N'-(4-chlorophenyl)ureido)-1-(2,2-diethoxyethyl)indolin-2-one] showed an IC50 in experiment [1] of 2.6 nM. In the experiment with gastric acid secretion, this molecule returned an inhibition in vivo at 10 mg/kg of 61%.

On to `CCOC(CN1C(=O)C(CC(=O)Nc2ccc(C)cc2)(NC(=O)Nc2cccc(F)c2)c2ccccc21)OCC` (racemic) [Example 94, (RS)-1-(2,2-Diethoxyethyl)-3-(N'-(3-fluorophenyl)ureido)-3-((4-methylphenyl)aminocarbonylmethyl)indolin-2-one], for which, in experiment [1], the IC50 was 3.5 nM. In the experiment on gastric acid secretion, this molecule displayed an inhibition in vivo at 10 mg/kg of 70%.

On to `CCOC(CN1C(=O)C(CC(=O)Nc2ccc(Cl)cc2)(NC(=O)Nc2cccc(OC)c2)c2ccccc21)OCC` (racemic) [Example 149, (RS)-3-((4-Chlorophenyl)aminocarbonylmethyl)-1-(2,2-diethoxyethyl)-3-(N'-(3-methoxyphenyl)ureido)indolin-2-one], for which the IC50 in experiment [1] worked out at 0.93 nM. Further, the inhibition in vivo at 10 mg/kg with gastric acid secretion stood at 69%.

With `CCOC(CN1C(=O)C(CC(=O)Nc2ccc(Cl)cc2)(NC(=O)Nc2ccc(OC)cc2)c2ccccc21)OCC` (racemic) [Example 169, (RS)-3-(-(4-Chlorophenyl)aminocarbonylmethyl)-1-(2,2-diethoxyethyl)-3-(N'-(4-methoxyphenyl)ureido)indolin-2-one], the IC50 in experiment [1] was 1.9 nM. The molecule further showed an inhibition in vivo at 10 mg/kg with gastric acid secretion of 52%.

`CCOC(CN1C(=O)C(NC(=O)Nc2ccc(C)cc2)(NC(=O)Nc2ccc(C)cc2)c2ccccc21)OCC` [Example 10, 1-(2,2-Diethoxyethyl)-3,3-bis(N'-(4-methylphenyl)ureido)indolin-2-one] registered an IC50 in experiment [1] of 2.5 nM. For the same molecule, the inhibition in vivo at 10 mg/kg with gastric acid secretion turned out to be 59%.

`CCOC(CN1C(=O)C(CC(=O)Nc2ccc(C)cc2)(NC(=O)Nc2cccc(OC)c2)c2ccccc21)OCC` (racemic) [Example 85, (RS)-1-(2,2-Diethoxyethyl)-3-(N'-(3-methoxyphenyl)ureido)-3-((4-methylphenyl)aminocarbonylmethyl)indolin-2-one]: in experiment [1], the IC50 came out at 1.2 nM. The molecule also showed an inhibition in vivo at 10 mg/kg with gastric acid secretion of 72%.

`CCOC(CN1C(=O)C(CC(=O)Nc2ccc(C)cc2)(NC(=O)Nc2ccc(OC)cc2)c2ccccc21)OCC` (racemic) [Example 79, (RS)-1-(2,2-Diethoxyethyl)-3-(N'-(4-methoxyphenyl)ureido)-3-((4-methylphenyl)aminocarbonylmethyl)indolin-2-one] displayed an IC50 in experiment [1] of 1.9 nM. In the experiment on gastric acid secretion, this molecule yielded an inhibition in vivo at 10 mg/kg of 47%.

Take `CCOC(CN1C(=O)C(CC(=O)Nc2ccc(N)cc2)(NC(=O)Nc2ccc(C)cc2)c2ccccc21)OCC` (racemic) [Example 125, (RS)-3-((4-Aminophenyl)aminocarbonylmethy)-1-(2,2-diethoxyethyl)-3-(N'-(4-methylphenyl)ureido)indolin-2-one]: the IC50 in experiment [1] was 2.5 nM. The inhibition in vivo at 10 mg/kg in the experiment with gastric acid secretion stood at 54%.

`CCOC(CN1C(=O)C(CC(=O)Nc2ccc(C)cc2)(NC(=O)Nc2ccccc2)c2ccccc21)OCC` (racemic) [Example 84, (RS)-1-(2,2-Diethoxyethyl)-3-((4-methylphenyl)aminocarbonylmethyl)-3-(N'-phenylureido)indolin-2-one] came in with a half-maximal inhibitory concentration (IC50) in experiment [1] of 3.4 nM. The inhibition in vivo at 10 mg/kg with gastric acid secretion stood at 68%.

For `CCOC(CN1C(=O)C(CC(=O)Nc2ccc(C)cc2)(NC(=O)Nc2ccc(F)cc2)c2ccccc21)OCC` (racemic) [Example 82, (RS)-1-(2,2-Diethoxyethyl)-3-(N'-(4-fluorophenyl)ureido)-3-((4-methylphenyl)aminocarbonylmethyl)indolin-2-one], the IC50 in experiment [1] was 6.2 nM. Further, the inhibition in vivo at 10 mg/kg in the experiment on gastric acid secretion turned out to be 56%.

`CCOC(CN1C(=O)C(CC(=O)Nc2ncccn2)(NC(=O)Nc2ccc(C)cc2)c2ccccc21)OCC` (racemic) [Example 132, (RS)-1-(2,2-Diethoxyethyl)-3-(N'-(4-methylphenyl)ureido)-3-((2-pyrimidinyl)aminocarbonylmethyl)indolin-2-one]: in experiment [1], the IC50 was 8.9 nM. Moreover, 10 mg/kg produced 52% inhibition in vivo in the experiment on gastric acid secretion.

In experiment [1], `CCOC(CN1C(=O)C(CC(=O)Nc2ccc(F)cc2)(NC(=O)Nc2ccc(F)cc2)c2ccccc21)OCC` (racemic) [Example 170, (RS)-1-(2,2-Diethoxyethyl)-3-((4-fluorophenyl)aminocarbonylmethyl)-3-(N'-(4-fluorophenyl)ureido)indolin-2-one] had an IC50 of 5.1 nM. In the experiment on gastric acid secretion, the inhibition in vivo at 10 mg/kg was found to be 63%.

In turn, `CCOC(CN1C(=O)C(CC(=O)Nc2cccc(OC)c2)(NC(=O)Nc2cccc(OC)c2)c2ccccc21)OCC` (racemic) [Example 151, (RS)-1-(2,2-Diethoxyethyl)-3-((3-methoxyphenyl)aminocarbonylmethyl)-3-(N'-(3-methoxyphenyl)ureido)indolin-2-one] yielded an IC50 in experiment [1] of 2.9 nM. The molecule further showed an inhibition in vivo at 10 mg/kg with gastric acid secretion of 62%.

As for `CCOC(CN1C(=O)C(NC(=O)Nc2ccc(F)cc2)(NC(=O)Nc2ccc(F)cc2)c2ccccc21)OCC` [Example 14, 1-(2,2-Diethoxyethyl)-3,3-bis(N'-(4-fluorophenyl)ureido)indolin-2-one], in experiment [1], the IC50 came to 2.2 nM. Further, the inhibition in vivo at 10 mg/kg in the experiment on gastric acid secretion was found to be 49%.

As to `CCOC(CN1C(=O)C(CC(=O)Nc2ccc(C)cc2)(NC(=O)Nc2cccc(C)c2)c2ccccc21)OCC` (racemic) [Example 81, (RS)-1-(2,2-Diethoxyethyl)-3-((4-methylphenyl)aminocarbonylmethyl)-3-(N'-(3-methylphenyl)ureido)indolin-2-one], the IC50 in experiment [1] is 1.6 nM. In the experiment with gastric acid secretion, this molecule gave an inhibition in vivo at 10 mg/kg of 59%.

Regarding `CCOC(CN1C(=O)C(CC(=O)Nc2ccc(OC)cc2)(NC(=O)Nc2cccc(OC)c2)c2ccccc21)OCC` (racemic) [Example 148, (RS)-1-(2,2-Diethoxyethyl)-3-((4-methoxyphenyl)aminocarbonylmethyl)-3-(N'-(3-methoxyphenyl)ureido)indolin-2-one], the IC50 in experiment [1] is 1.1 nM. The molecule also showed an inhibition in vivo at 10 mg/kg with gastric acid secretion of 63%.

In experiment [1], `CCOC(CN1C(=O)C(CC(=O)Nc2ccc(F)cc2)(NC(=O)Nc2ccc(C)cc2)c2ccccc21)OCC` (racemic) [Example 124, (RS)-1-(2,2-Diethoxyethyl)-3-((4-fluorophenyl)aminocarbonylmethyl)-3-(N'-(4-methylphenyl)ureido)indolin-2-one] yielded an IC50 of 5.3 nM. This molecule also gave an inhibition in vivo at 10 mg/kg with gastric acid secretion of 54%.

`CCOC(CN1C(=O)C(CC(=O)Nc2ccc(N(C)C(=O)C(F)(F)F)cc2)(NC(=O)Nc2ccc(C)cc2)c2ccccc21)OCC` (racemic) [Example 131, (RS)-1-(2,2-Diethoxyethyl) 3-((4-(N-trifluoromethylcarbonyl-N-methylamino)phenyl)aminocarbonylmethyl)-3-(N'-(4-methylphenyl)ureido)indolin-2-one] registered an IC50 in experiment [1] of 23 nM. The molecule also gave an inhibition in vivo at 10 mg/kg with gastric acid secretion of 65%.

By IC50 is commonly meant the midpoint of a concentration-inhibition curve. A low value points to higher potency. The inhibition in vivo is the relative decrease from the control value, in per cent.
